Source: the OligoGym collection
HELM strings list units from the 5' end as sugar, base in round brackets, then linkage (d deoxyribose, r ribose, m 2'-O-methyl, p phosphodiester). Strings are as the collection lists them; they lack the last nucleoside at the 3' end of the tested compound. [moe] = 2'-O-(2-methoxyethyl) (MOE); [sp] = phosphorothioate linkage; [m5C] = 5-methylcytosine

Target: GFAP
Assay: mouse, dose not given
Details: ASO

Substance	3 h FOB score [score 0-7]
RNA1{[moe]([m5C])[sp].[moe](A)p.[moe](G)p.[moe]([m5C])p.d([m5C])[sp].d(T)[sp].d(G)[sp].d(G)[sp].d(T)[sp].d(T)[sp].d(A)[sp].d(G)[sp].d([m5C])[sp].d([m5C])[sp].[moe](T)p.[moe](T)p.[moe](T)p.[moe]([m5C])[sp].[moe](T)}$$$$ (last 3' nucleoside missing)	4
RNA1{[moe](G)[sp].[moe](G)p.[moe]([m5C])p.[moe](G)p.[moe](A)[sp].d(G)[sp].d([m5C])[sp].d(G)[sp].d(G)[sp].d(A)[sp].d(G)[sp].d(G)[sp].d([m5C])[sp].d([m5C])[sp].d(T)[sp].[moe](G)p.[moe](G)p.[moe](G)[sp].[moe](T)}$$$$ (last 3' nucleoside missing)	7
RNA1{[moe](G)[sp].[moe](T)p.[moe](G)p.[moe]([m5C])p.[moe]([m5C])[sp].d([m5C])[sp].d([m5C])[sp].d([m5C])[sp].d([m5C])[sp].d(G)[sp].d([m5C])[sp].d([m5C])[sp].d([m5C])[sp].d(T)[sp].d([m5C])[sp].[moe]([m5C])p.[moe](T)p.[moe]([m5C])[sp].[moe]([m5C])}$$$$ (last 3' nucleoside missing)	2
RNA1{[moe](G)[sp].[moe](T)p.[moe](G)p.[moe](T)p.[moe](G)[sp].d(T)[sp].d(A)[sp].d(T)[sp].d(T)[sp].d(A)[sp].d(G)[sp].d(G)[sp].d(A)[sp].d(T)[sp].d([m5C])[sp].[moe]([m5C])p.[moe]([m5C])p.[moe](A)[sp].[moe](T)}$$$$ (last 3' nucleoside missing)	6
RNA1{[moe](T)[sp].[moe](T)p.[moe](G)p.[moe](T)p.[moe]([m5C])[sp].d(T)[sp].d(T)[sp].d(T)[sp].d(A)[sp].d(T)[sp].d(T)[sp].d(T)[sp].d(T)[sp].d(T)[sp].d([m5C])[sp].[moe]([m5C])p.[moe](T)p.[moe]([m5C])[sp].[moe](A)}$$$$ (last 3' nucleoside missing)	1
RNA1{[moe](G)[sp].[moe](G)p.[moe](T)p.[moe](G)p.[moe](G)[sp].d(G)[sp].d(T)[sp].d(G)[sp].d([m5C])[sp].d([m5C])[sp].d(G)[sp].d(T)[sp].d([m5C])[sp].d(T)[sp].d(G)[sp].[moe](G)p.[moe]([m5C])p.[moe](A)[sp].[moe](G)}$$$$ (last 3' nucleoside missing)	7
RNA1{[moe](A)[sp].[moe](G)p.[moe](A)p.[moe](G)p.[moe](T)[sp].d(G)[sp].d(T)[sp].d(G)[sp].d(T)[sp].d(A)[sp].d(T)[sp].d(T)[sp].d(A)[sp].d(G)[sp].d(G)[sp].[moe](A)p.[moe](T)p.[moe]([m5C])[sp].[moe]([m5C])}$$$$ (last 3' nucleoside missing)	5
RNA1{[moe](T)[sp].[moe](G)p.[moe](T)p.[moe](G)p.[moe](A)[sp].d(T)[sp].d(T)[sp].d(T)[sp].d(T)[sp].d([m5C])[sp].d([m5C])[sp].d([m5C])[sp].d([m5C])[sp].d(G)[sp].d(T)[sp].[moe]([m5C])p.[moe](T)p.[moe](T)[sp].[moe](T)}$$$$ (last 3' nucleoside missing)	5
RNA1{[moe](T)[sp].[moe](G)p.[moe](G)p.[moe](T)p.d(G)[sp].d([m5C])[sp].d(T)[sp].d(T)[sp].d(T)[sp].d(T)[sp].d(G)[sp].d([m5C])[sp].d([m5C])[sp].d([m5C])[sp].[moe]([m5C])p.[moe]([m5C])p.[moe](T)p.[moe](G)[sp].[moe](T)}$$$$ (last 3' nucleoside missing)	1
RNA1{[moe](A)[sp].[moe](G)p.[moe](G)p.[moe]([m5C])p.[moe](A)p.[moe]([m5C])p.d(A)[sp].d(G)[sp].d(T)[sp].d(T)[sp].d([m5C])[sp].d([m5C])[sp].d([m5C])[sp].d(A)[sp].d(G)[sp].d(A)[sp].[moe](T)p.[moe](A)[sp].[moe]([m5C])}$$$$ (last 3' nucleoside missing)	1
RNA1{[moe](T)[sp].[moe](G)p.[moe](A)p.[moe](G)p.[moe](T)[sp].d([m5C])[sp].d(T)[sp].d([m5C])[sp].d(A)[sp].d(G)[sp].d(T)[sp].d(T)[sp].d(T)[sp].d(T)[sp].d([m5C])[sp].[moe]([m5C])p.[moe](T)p.[moe]([m5C])[sp].[moe]([m5C])}$$$$ (last 3' nucleoside missing)	0
RNA1{[moe]([m5C])[sp].[moe](A)p.[moe]([m5C])p.[moe](A)p.[moe](T)[sp].d(T)[sp].d([m5C])[sp].d(A)[sp].d([m5C])[sp].d(T)[sp].d(A)[sp].d(A)[sp].d(T)[sp].[moe](A)p.[moe](T)p.[moe](T)[sp].[moe](T)}$$$$ (last 3' nucleoside missing)	0
RNA1{[moe](G)[sp].[moe]([m5C])p.[moe]([m5C])p.[moe](T)p.[moe](T)[sp].d([m5C])[sp].d([m5C])[sp].d([m5C])[sp].d(T)[sp].d(T)[sp].d(T)[sp].d([m5C])[sp].d([m5C])[sp].d(T)[sp].d(G)[sp].[moe](T)p.[moe]([m5C])p.[moe](T)[sp].[moe](G)}$$$$ (last 3' nucleoside missing)	5
RNA1{[moe](T)[sp].[moe](A)p.[moe](T)p.[moe]([m5C])p.[moe](T)[sp].d(G)[sp].d(T)[sp].d(G)[sp].d([m5C])[sp].d(T)[sp].d(T)[sp].d(T)[sp].d(A)[sp].[moe](G)p.[moe](T)p.[moe](G)[sp].[moe](A)}$$$$ (last 3' nucleoside missing)	3
RNA1{[moe](G)[sp].[moe]([m5C])p.[moe](T)p.[moe]([m5C])p.[moe]([m5C])[sp].d([m5C])[sp].d(A)[sp].d([m5C])[sp].d(A)[sp].d([m5C])[sp].d(T)[sp].d(A)[sp].d([m5C])[sp].d(A)[sp].d(T)[sp].[moe](A)p.[moe](T)p.[moe](A)[sp].[moe](A)}$$$$ (last 3' nucleoside missing)	2
RNA1{[moe](A)[sp].[moe](G)p.[moe](A)p.[moe](T)p.[moe](A)[sp].d(T)[sp].d([m5C])[sp].d(T)[sp].d(T)[sp].d(G)[sp].d(T)[sp].d(G)[sp].d(A)[sp].d([m5C])[sp].d([m5C])[sp].[moe](T)p.[moe](T)p.[moe](G)[sp].[moe](T)}$$$$ (last 3' nucleoside missing)	6
RNA1{[moe](G)[sp].[moe]([m5C])p.[moe](A)p.[moe](G)p.[moe](T)[sp].d(A)[sp].d(T)[sp].d(T)[sp].d(A)[sp].d([m5C])[sp].d([m5C])[sp].d(T)[sp].d([m5C])[sp].[moe](T)p.[moe](A)p.[moe]([m5C])[sp].[moe](T)}$$$$ (last 3' nucleoside missing)	1
RNA1{[moe](T)[sp].[moe](G)p.[moe]([m5C])p.[moe]([m5C])p.[moe](A)p.[moe](T)p.d(T)[sp].d(T)[sp].d(A)[sp].d(T)[sp].d([m5C])[sp].d(T)[sp].d(G)[sp].d(T)[sp].d(G)[sp].d([m5C])[sp].[moe](T)p.[moe](T)[sp].[moe](T)}$$$$ (last 3' nucleoside missing)	2
RNA1{[moe]([m5C])[sp].[moe](T)p.[moe](T)p.[moe](T)p.[moe](A)[sp].d(T)[sp].d(T)[sp].d(T)[sp].d(T)[sp].d(T)[sp].d([m5C])[sp].d([m5C])[sp].d(T)[sp].d([m5C])[sp].d(A)[sp].[moe](G)p.[moe]([m5C])p.[moe](G)[sp].[moe](A)}$$$$ (last 3' nucleoside missing)	0
RNA1{[moe](T)[sp].[moe]([m5C])p.[moe](A)p.[moe](G)p.[moe]([m5C])p.[moe]([m5C])p.d(T)[sp].d(G)[sp].d(G)[sp].d(T)[sp].d(T)[sp].d(A)[sp].d(G)[sp].d([m5C])[sp].d([m5C])[sp].d(T)[sp].[moe](T)p.[moe](T)[sp].[moe]([m5C])}$$$$ (last 3' nucleoside missing)	4
RNA1{[moe](T)[sp].[moe](T)p.[moe](G)p.[moe](G)p.[moe](T)p.d(G)[sp].d([m5C])[sp].d(T)[sp].d(T)[sp].d(T)[sp].d(T)[sp].d(G)[sp].d([m5C])[sp].d([m5C])[sp].d([m5C])[sp].[moe]([m5C])p.[moe]([m5C])p.[moe](T)[sp].[moe](G)}$$$$ (last 3' nucleoside missing)	0
RNA1{[moe](G)[sp].[moe](G)p.[moe](A)p.[moe](G)p.[moe](A)[sp].d(A)[sp].d(G)[sp].d(G)[sp].d(T)[sp].d([m5C])[sp].d(T)[sp].d(G)[sp].d([m5C])[sp].d(A)[sp].d([m5C])[sp].[moe](G)p.[moe](G)p.[moe](G)[sp].[moe](A)}$$$$ (last 3' nucleoside missing)	7
RNA1{[moe]([m5C])[sp].[moe](A)p.[moe](T)p.[moe](T)p.[moe]([m5C])[sp].d(A)[sp].d([m5C])[sp].d(T)[sp].d(A)[sp].d(A)[sp].d(T)[sp].d(A)[sp].d(T)[sp].[moe](T)p.[moe](T)p.[moe](A)[sp].[moe](A)}$$$$ (last 3' nucleoside missing)	0
RNA1{[moe]([m5C])[sp].[moe](G)p.[moe](T)p.[moe]([m5C])p.[moe](A)p.d([m5C])[sp].d(A)[sp].d(T)[sp].d(T)[sp].d([m5C])[sp].d(A)[sp].d([m5C])[sp].d(T)[sp].d(A)[sp].d(A)[sp].[moe](T)p.[moe](A)p.[moe](T)[sp].[moe](T)}$$$$ (last 3' nucleoside missing)	0
RNA1{[moe](G)[sp].[moe](T)p.[moe](G)p.[moe](T)p.[moe](A)p.[moe](T)p.d(T)[sp].d(A)[sp].d(G)[sp].d(G)[sp].d(A)[sp].d(T)[sp].d([m5C])[sp].d([m5C])[sp].d([m5C])[sp].d(A)[sp].[moe](T)p.[moe]([m5C])[sp].[moe](T)}$$$$ (last 3' nucleoside missing)	4
RNA1{[moe](T)[sp].[moe](T)p.[moe](G)p.[moe](T)p.d(G)[sp].d(A)[sp].d(T)[sp].d(T)[sp].d(T)[sp].d(T)[sp].d([m5C])[sp].d([m5C])[sp].d([m5C])[sp].d([m5C])[sp].[moe](G)p.[moe](T)p.[moe]([m5C])p.[moe](T)[sp].[moe](T)}$$$$ (last 3' nucleoside missing)	0
